According to ChEMBL document CHEMBL1139408, “Synthesis and calpain inhibitory activity of peptidomimetic compounds with constrained amino acids at the P2 position” (Bioorg Med Chem Lett, 2008):
Where a SMILES comes first, the peptide text is derived from it. [ ]: non-standard residue; d: D form. The star is where a group is joined. Hydrocinnamoyl = O=C(CCc1ccccc1)*; Nle = CCCC[C@H](N)C(=O)O; Ac5c = NC1(C(=O)O)CCCC1; Deg = CCC(N)(CC)C(=O)O

What was measured:
[1] = target: T1, Calpain-1 catalytic subunit (Sus scrofa, UniProt P35750); assay: Inhibition of pig erythrocyte mu-calpain
T1 sequence (P35750 whole entry): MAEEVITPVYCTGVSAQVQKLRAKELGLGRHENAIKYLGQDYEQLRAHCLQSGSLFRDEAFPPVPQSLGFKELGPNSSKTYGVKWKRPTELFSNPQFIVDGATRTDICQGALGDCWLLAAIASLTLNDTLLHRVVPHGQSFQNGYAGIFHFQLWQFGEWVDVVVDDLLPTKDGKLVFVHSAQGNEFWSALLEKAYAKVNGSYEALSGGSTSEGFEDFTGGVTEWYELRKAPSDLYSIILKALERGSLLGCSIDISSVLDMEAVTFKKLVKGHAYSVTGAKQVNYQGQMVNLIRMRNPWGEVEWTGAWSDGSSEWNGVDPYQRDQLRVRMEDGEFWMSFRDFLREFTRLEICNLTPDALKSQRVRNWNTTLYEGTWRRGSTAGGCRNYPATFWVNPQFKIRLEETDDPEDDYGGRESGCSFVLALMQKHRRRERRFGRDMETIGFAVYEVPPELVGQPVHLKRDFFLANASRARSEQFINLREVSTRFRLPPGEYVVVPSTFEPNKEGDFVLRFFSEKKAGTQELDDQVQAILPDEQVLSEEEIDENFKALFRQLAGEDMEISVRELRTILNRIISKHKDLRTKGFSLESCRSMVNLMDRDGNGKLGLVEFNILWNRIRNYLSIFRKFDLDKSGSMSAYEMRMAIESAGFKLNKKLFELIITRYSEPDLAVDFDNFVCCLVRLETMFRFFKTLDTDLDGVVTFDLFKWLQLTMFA

Cathepsin B = Cathepsin B (Homo sapiens, UniProt P07858); assay: Inhibition of human liver cathepsin B
[2] = Selectivity ratio of Ki for human liver cathepsin B to Ki for pig erythrocyte mu-calpain

| Structure (SMILES) | Ki [1] [µM] | Ki (Cathepsin B) [µM] | Selectivity ratio [2] |
| --- | --- | --- | --- |
| O=C[C@H](Cc1ccccc1)NC(=O)C1(NC(=O)CCc2ccccc2)CCCC1 (Hydrocinnamoyl-[Ac5c]-Phe-aldehyde) | 1.94 | 0.88 | 0.45 |
| CCCC[C@@H](C=O)NC(=O)[C@H](CC(C)C)NC(=O)[C@H](CC(C)C)NC(C)=O (Ac-Leu-Leu-[Nle]-aldehyde) | 0.19 | 0.15 | – |
| CCC(CC)(NC(=O)CCc1ccccc1)C(=O)N[C@H](C=O)Cc1ccccc1 (Hydrocinnamoyl-[Deg]-Phe-aldehyde) | 0.08 | 2.91 | 36.4 |
